Test results: PubChem BioAssay AID504341 (Southern Research Specialized Biocontainment Screening …, 2011)
Active and inactive are the calls of the source.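 How the source made its calls: active means compounds blocking at least half of HIV-1 envelope-driven cell fusion at some tested dose; inactive means the rest.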

system: MAGI-CCR5/HeLa-R5-16 cell fusion, beta-gal luminescence; assay: CCR5-tropic HIV-1 entry blockers, cell-cell fusion – MAGI-CCR5/HeLa-R5-16 cells, beta-gal luminescence, 2% serum, dose response (AID 504341)

Row | SMILES | IC50
1 | O=C(O)CCCN1C(=O)/C(=C\c2ccc(-c3ccc(F)cc3)o2)SC1=S | > 100 µM (inactive)
2 | COc1ccc(CCn2c(O)cc3nn(-c4nc5ccccc5s4)c(=O)c-3c2C)cc1 | > 100 µM (inactive)
3 | CCc1ccc(-c2ccc(/C=C3\SC(=S)N(CCCC(=O)O)C3=O)o2)cc1 | 62.4 µM
4 | CS(=O)(=O)C1=NSC2=NC(=O)/C(=C\c3cccn3-c3cccc(C(F)(F)F)c3)C(=N)N21 | 46.6 µM
5 | O=C(O)CCCN1C(=O)/C(=C/c2cc3ccccc3o2)SC1=S | > 100 µM (inactive)
6 | CCOC(=O)C1=C(C)N=c2s/c(=C\c3ccc(OCC(=O)O)cc3)c(=O)n2C1c1ccc(Cl)cc1 (stereo not drawn) | 34.9 µM
7 | Cc1c2c(=O)n(-c3nc4ccccc4s3)nc-2cc(O)n1C1CC1 | 15.5 µM
8 | Cc1c2c(=O)n(-c3nc4ccccc4s3)nc-2cc(O)n1CCc1ccc(O)cc1 | 5.19 µM
9 | O=C(O)CCCN1C(=O)/C(=C/c2ccc(-c3ccc(Cl)c(Cl)c3)o2)SC1=S | 8.68 µM
10 | O=C(O)CCC(C(=O)O)N1C(=O)/C(=C\c2ccco2)SC1=S (stereo not drawn) | > 100 µM (inactive)
11 | CS(=O)(=O)C1=NSC2=NC(=O)/C(=C\c3cccn3-c3cccc(Cl)c3)C(=N)N21 | 36.4 µM
12 | CS(=O)(=O)C1=NSC2=NC(=O)/C(=C\c3cccn3-c3ccc(Br)cc3)C(=N)N21 | 28.5 µM
13 | CCOc1ccc(-n2cccc2/C=C2/C(=N)N3C(=NC2=O)SN=C3S(C)(=O)=O)cc1 | 39.5 µM
14 | COc1ccccc1Cn1c(O)cc2nn(-c3nc4ccccc4s3)c(=O)c-2c1C | 17 µM
15 | Cc1c2c(=O)n(-c3nc4ccccc4s3)nc-2cc(O)n1Cc1cccnc1 | 3.54 µM
16 | O=C(O)CCCN1C(=O)/C(=C\c2ccc(-c3ccc(Br)cc3)o2)SC1=S | 3.49 µM
17 | O=C(O)c1ccc([C@@H]2Nc3ccc(S(=O)(=O)Nc4cccc5ccccc45)cc3[C@@H]3C=CC[C@@H]32)cc1 | 23.5 µM
18 | COc1cccc(-n2cccc2/C=C2/C(=N)N3C(=NC2=O)SN=C3S(C)(=O)=O)c1 | > 100 µM (inactive)
19 | CCOC(=O)C1=C(C)N=c2sc(=Cc3ccc(OCC(=O)O)cc3)c(=O)n2C1c1ccccc1OC (stereo not drawn) | 48.8 µM
20 | CCc1ccc(-n2cccc2/C=C2/C(=N)N3C(=NC2=O)SN=C3S(C)(=O)=O)cc1 | 33.3 µM
21 | O=C(O)c1ccc(C[n+]2c(-c3ccccc3)csc2Nc2ccccc2)cc1 | > 100 µM (inactive)
22 | CCOC(=O)C1=C(c2ccccc2)N=c2s/c(=C\c3ccc(OCC(=O)O)cc3)c(=O)n2C1c1cccc(OC)c1 (stereo not drawn) | 25.8 µM
23 | Cc1c2c(=O)n(-c3nc4ccccc4s3)nc-2cc(O)n1CCc1cccs1 | > 100 µM (inactive)
24 | CS(=O)(=O)C1=NSC2=NC(=O)/C(=C\c3cccn3-c3cc(Cl)cc(Cl)c3)C(=N)N21 | 32.3 µM
25 | COc1ccc(Cn2c(O)cc3nn(-c4nc5ccccc5s4)c(=O)c-3c2C)cc1 | 15.3 µM
26 | Cc1c2c(=O)n(-c3nc4ccccc4s3)nc-2cc(O)n1CCC(C)C | 39 µM
27 | Cc1c2c(=O)n(-c3nc4ccccc4s3)nc-2cc(O)n1Cc1ccncc1 | 2.96 µM
28 | COc1ccccc1NS(=O)(=O)c1ccc2c(c1)C1C=CCC1C(c1ccc(C(=O)O)cc1)N2 (stereo not drawn) | 38.7 µM

Continued, values first:

Row | IC50 | SMILES
29 | 39.2 µM | CCOC(=O)C1=C(C)N=c2sc(=Cc3ccc(OCC(=O)O)cc3)c(=O)n2C1c1ccc(F)cc1 (stereo not drawn)
30 | 56.8 µM | CC1=C(C(=O)OC(C)C)C(c2ccc(Cl)cc2)n2c(s/c(=C\c3ccc(OCC(=O)O)cc3)c2=O)=N1 (stereo not drawn)
31 | 63.1 µM | CCOC(=O)C1=C(C)N=c2sc(=Cc3ccc(OCC(=O)O)cc3)c(=O)n2C1c1ccccc1 (stereo not drawn)
32 | 20 µM | Cc1c2c(=O)n(-c3nc4ccccc4s3)nc-2cc(O)n1Cc1ccc(F)cc1
33 | 33.1 µM | Cc1ccc(-n2cccc2/C=C2/C(=N)N3C(=NC2=O)SN=C3S(C)(=O)=O)cc1C
34 | > 100 µM (inactive) | COc1cccc(C2C(C(=O)Nc3ccccc3)=C(C)N=c3sc(=Cc4ccc(OCC(=O)O)cc4)c(=O)n32)c1 (stereo not drawn)
35 | 36.6 µM | COc1ccc(-c2ccc(/C=C3\SC(=S)N(CCCC(=O)O)C3=O)o2)cc1
36 | 45.6 µM | Cc1c2c(=O)n(-c3nc4ccccc4s3)nc-2cc(O)n1Cc1ccccc1Cl
37 | 34.5 µM | Cc1c2c(=O)n(-c3nc4ccccc4s3)nc-2cc(O)n1Cc1cccs1
38 | 38 µM | Cc1ccc(-n2cccc2/C=C2/C(=N)N3C(=NC2=O)SN=C3S(C)(=O)=O)cc1
39 | 46.4 µM | COc1ccc(-n2cccc2/C=C2/C(=N)N3C(=NC2=O)SN=C3S(C)(=O)=O)cc1Cl
40 | 49.9 µM | CS(=O)(=O)C1=NSC2=NC(=O)/C(=C\c3cccn3-c3cccc(F)c3)C(=N)N21
41 | 34.8 µM | CS(=O)(=O)C1=NSC2=NC(=O)/C(=C\c3cccn3-c3ccc(Cl)cc3)C(=N)N21
42 | 31.3 µM | CCOC(=O)C1=C(C)N=c2s/c(=C\c3ccc(OCC(=O)O)cc3)c(=O)n2C1c1ccc(OC)c(OCC)c1 (stereo not drawn)
43 | 29.1 µM | Cc1ccc(-c2ccc(/C=C3\SC(=S)N(CCCC(=O)O)C3=O)o2)cc1
44 | 8.29 µM | O=C(O)CCCN1C(=O)/C(=C\c2ccc(-c3ccc(Cl)cc3)o2)SC1=S
45 | 75.5 µM | CCOC(=O)C1=C(C)N=c2sc(=Cc3ccc(OCC(=O)O)cc3)c(=O)n2C1c1cc(OC)c(OC)c(OC)c1 (stereo not drawn)
46 | > 100 µM (inactive) | O=C(O)c1ccc(C[n+]2c(-c3ccc([N+](=O)[O-])cc3)csc2Nc2ccccc2)cc1
47 | 27.9 µM | CS(=O)(=O)C1=NSC2=NC(=O)/C(=C\c3cccn3-c3ccc(F)cc3)C(=N)N21
48 | 29 µM | CCOC(=O)C1=C(C)N=c2sc(=Cc3ccc(OCC(=O)O)cc3)c(=O)n2C1c1ccc(OC)cc1OC (stereo not drawn)
49 | 24.5 µM | O=C(O)CCCN1C(=O)/C(=C/c2ccc(-c3cccc(C(F)(F)F)c3)o2)SC1=S
50 | > 100 µM (inactive) | Nc1sc2ccccc2[n+]1Cc1ccc(C(=O)O)cc1
51 | 35.2 µM | CS(=O)(=O)C1=NSC2=NC(=O)/C(=C\c3cccn3-c3ccc(Cl)c(Cl)c3)C(=N)N21
52 | 28.5 µM | O=C(O)CCCN1C(=O)/C(=C\c2ccc(-c3cccc(Cl)c3)o2)SC1=S
53 | 28.4 µM | O=C(O)c1ccc(C2Nc3ccc(S(=O)(=O)Nc4cc(Cl)ccc4Cl)cc3C3C=CCC32)cc1 (stereo not drawn)
